Assay results taken from patent US12479840B2, “HMG-CoA reductase degradation inducing compound” (Uppthera, priority 2020, dated 2025).

Each compound was assayed against T1, HMG-CoA reductase (Homo sapiens, UniProt P04035) (assay: HMG-CoA reductase (HMGCR) degradation in HepG2 cells by western blotting). Conditions: treated for 18 hours, ratio of HMG-CoA reductase to GAPDH, read-out: DC50.
T1 construct: endogenous in cells; host or cells: HepG2 (Korea Cell Line Bank)
T1 sequence (P04035 1-888): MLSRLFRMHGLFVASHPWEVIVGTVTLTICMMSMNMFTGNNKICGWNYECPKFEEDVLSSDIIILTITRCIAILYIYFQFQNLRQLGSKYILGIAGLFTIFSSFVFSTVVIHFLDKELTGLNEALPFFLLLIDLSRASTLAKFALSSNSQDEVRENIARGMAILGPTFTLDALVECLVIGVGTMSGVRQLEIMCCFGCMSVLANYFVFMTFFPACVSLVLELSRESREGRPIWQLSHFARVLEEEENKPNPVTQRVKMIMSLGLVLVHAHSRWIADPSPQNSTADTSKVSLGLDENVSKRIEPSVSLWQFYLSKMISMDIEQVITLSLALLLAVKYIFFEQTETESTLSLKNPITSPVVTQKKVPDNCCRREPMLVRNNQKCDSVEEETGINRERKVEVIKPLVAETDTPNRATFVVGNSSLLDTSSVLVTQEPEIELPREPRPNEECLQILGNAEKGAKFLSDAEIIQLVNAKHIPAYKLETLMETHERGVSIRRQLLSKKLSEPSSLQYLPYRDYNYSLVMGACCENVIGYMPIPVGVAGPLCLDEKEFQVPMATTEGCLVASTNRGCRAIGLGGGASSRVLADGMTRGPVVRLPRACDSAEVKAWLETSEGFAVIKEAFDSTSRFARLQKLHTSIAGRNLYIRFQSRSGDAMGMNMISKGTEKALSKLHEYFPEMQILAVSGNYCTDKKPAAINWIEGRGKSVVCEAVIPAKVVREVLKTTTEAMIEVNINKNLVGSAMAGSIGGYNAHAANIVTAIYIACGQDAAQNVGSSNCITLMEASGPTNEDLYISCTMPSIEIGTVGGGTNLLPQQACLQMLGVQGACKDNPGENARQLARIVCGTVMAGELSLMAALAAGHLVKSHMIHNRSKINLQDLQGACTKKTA
Format: cell-based
Summary of the method: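 Western blot read-out: HMGCR protein probed (1:500, 16 hours at 4° C) alongside GAPDH loading control on 15 μg BCA-normalised RIPA lysates. Lysates came from HepG2 cells (P105–P110) exposed for 18 hours to a 10-point, three-fold series starting at 3 μM.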

Compound	DC50 [nM]
C[C@H]1C=C2C=C[C@H](C)[C@H](CC[C@@H]3C[C@@H](O[Si](C)(C)C(C)(C)C)CC(=O)O3)[C@H]2[C@@H](OC(=O)NCCCn2cnc(CNc3cccc4c3C(=O)N(C3CCC(=O)NC3=O)C4=O)c2)C1 (stereo partly drawn) [Compound 102, (1S,3R,7S,8S,8aR)-8-(2-((2R,4R)-4-((tert-butyldimethylsilyl)oxy)-6-oxotetrahydro-2H-pyran-2-yl)ethyl)-3,7-dimethyl-1,2,3,7,8,8a-hexahydronaphthalen-1-yl (3-(4-(((2-(2,6-dioxopiperidin-3-yl)-1,3-dioxoisoindolin-4-yl)amino)methyl)-1H-imidazol-1-yl)propyl)carbamate]	< 50
C[C@H]1C=C2C=C[C@H](C)[C@H](CC[C@@H]3C[C@@H](O)CC(=O)O3)[C@H]2[C@@H](OC(=O)NCCCn2cnc(CNc3cccc4c3C(=O)N(C3CCC(=O)NC3=O)C4=O)c2)C1 (stereo partly drawn) [Compound 103, (1S,3R,7S,8S,8aR)-8-(2-((2R,4R)-4-hydroxy-6-oxotetrahydro-2H-pyran-2-yl)ethyl)-3,7-dimethyl-1,2,3,7,8,8a-hexahydronaphthalen-1-yl (3-(4-(((2-(2,6-dioxopiperidin-3-yl)-1,3-dioxoisoindolin-4-yl)amino)methyl)-1H-imidazol-1-yl)propyl)carbamate]	< 50
C[C@H]1C=C2C=C[C@H](C)[C@H](CC[C@@H]3C[C@@H](O[Si](C)(C)C(C)(C)C)CC(=O)O3)[C@H]2[C@@H](OC(=O)NCc2ccc(OCCNc3cccc4c3C(=O)N(C3CCC(=O)NC3=O)C4=O)cc2)C1 (stereo partly drawn) [Compound 104, (1S,3R,7S,8S,8aR)-8-(2-((2R,4R)-4-((tert-butyldimethylsilyl)oxy)-6-oxotetrahydro-2H-pyran-2-yl)ethyl)-3,7-dimethyl-1,2,3,7,8,8a-hexahydronaphthalen-1-yl (4-(2-((2-(2,6-dioxopiperidin-3-yl)-1,3-dioxoisoindolin-4-yl)amino)ethoxy)benzyl)carbamate]	< 50

The remaining lines, values ahead:

DC50 [nM]	Compound
< 50	C[C@H]1C=C2C=C[C@H](C)[C@H](CC[C@@H]3C[C@@H](O)CC(=O)O3)[C@H]2[C@@H](OC(=O)NCc2ccc(OCCNc3cccc4c3C(=O)N(C3CCC(=O)NC3=O)C4=O)cc2)C1 (stereo partly drawn) [Compound 105, (1S,3R,7S,8S,8aR)-8-(2-((2R,4R)-4-hydroxy-6-oxotetrahydro-2H-pyran-2-yl)ethyl)-3,7-dimethyl-1,2,3,7,8,8a-hexahydronaphthalen-1-yl (4-(2-((2-(2,6-dioxopiperidin-3-yl)-1,3-dioxoisoindolin-4-yl)amino)ethoxy)benzyl)carbamate]
< 50	C[C@H]1C=C2C=C[C@H](C)[C@H](CC[C@@H](O)C[C@@H](O)CC(=O)O)[C@H]2[C@@H](OC(=O)NCCOCCOCCNc2cccc3c2C(=O)N(C2CCC(=O)NC2=O)C3=O)C1 (stereo partly drawn) [Compound 106, (3R,5R)-7-((1S,2S,6R,8S,8aR)-8-(((2-(2-(2-((2-(2,6-dioxopiperidin-3-yl)-1,3-dioxoisoindolin-4-yl)amino)ethoxy)ethoxy)ethyl)carbamoyl)oxy)-2,6-dimethyl-1,2,6,7,8,8a-hexahydronaphthalen-1-yl)-3,5-dihydroxyheptanoic acid]
< 50	C[C@H]1C=C2C=C[C@H](C)[C@H](CC[C@@H](O)C[C@@H](O)CC(=O)O)[C@H]2[C@@H](OC(=O)NCCOCCOCCOCCNc2cccc3c2C(=O)N(C2CCC(=O)NC2=O)C3=O)C1 (stereo partly drawn) [Compound 107, (3R,5R)-7-((1S,2S,6R,8S,8aR)-8-(((2-(2-(2-(2-((2-(2,6-dioxopiperidin-3-yl)-1,3-dioxoisoindolin-4-yl)amino)ethoxy)ethoxy)ethoxy)ethyl)carbamoyl)oxy)-2,6-dimethyl-1,2,6,7,8,8a-hexahydronaphthalen-1-yl)-3,5-dihydroxyheptanoic acid]
